# Results taken from patent publication US20240190880A1 (THE REGENTS OF THE UNIVERSITY OF MICHIGAN, priority 2021, published 2024).
# Molecular target: T1, ER (Homo sapiens, UniProt P03372)
# T1 construct: host or cells: T47D and MCF7 human breast cancer cells
# T1 sequence (P03372 1-595): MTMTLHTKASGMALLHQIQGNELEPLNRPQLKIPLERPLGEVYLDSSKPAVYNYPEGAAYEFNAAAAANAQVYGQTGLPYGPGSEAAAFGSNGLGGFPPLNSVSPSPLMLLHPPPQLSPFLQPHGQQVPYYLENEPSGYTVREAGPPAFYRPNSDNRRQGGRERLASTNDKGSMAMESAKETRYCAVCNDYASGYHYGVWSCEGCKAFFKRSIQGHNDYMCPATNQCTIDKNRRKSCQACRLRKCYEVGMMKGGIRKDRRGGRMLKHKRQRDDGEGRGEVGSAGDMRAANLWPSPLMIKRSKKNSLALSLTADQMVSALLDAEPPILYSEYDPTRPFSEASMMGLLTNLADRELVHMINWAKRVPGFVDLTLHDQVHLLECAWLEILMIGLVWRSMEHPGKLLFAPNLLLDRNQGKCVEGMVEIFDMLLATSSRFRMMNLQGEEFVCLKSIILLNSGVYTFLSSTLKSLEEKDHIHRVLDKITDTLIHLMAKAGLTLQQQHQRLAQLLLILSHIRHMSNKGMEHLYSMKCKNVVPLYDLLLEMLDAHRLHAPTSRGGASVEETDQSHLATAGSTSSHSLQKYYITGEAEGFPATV
# Assay: ER degradation activity, in-cell western blot analysis in T47D cells
# Assay type: cell-based
# Conditions: 16 hours, Table A does not say which cell line (T47D or MCF7), read-out: Potency (DC50)
# Summary of the method: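 T47D cells grown in DMEM with 10% FBS were treated with compounds for 16 hours at 0.5% DMSO final. ER was detected by in-cell western using 680/800 near-infrared secondary antibodies. Residual ER is given as percent of untreated and DMSO-treated wells set to 100%.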
row,DC50,SMILES
1,< 10 nM,"C[C@@H]1Cc2c([nH]c3ccccc23)[C@@H](c2c(F)cc(N3CC4(CCN(C(=O)CN5Cc6cc7c(cc6C5)C(=O)N(C5CCC(=O)NC5=O)C7=O)C4)C3)cc2F)N1CC(F)F (stereo partly drawn) [E 77, 6-(2-(2-(4-((1R,3R)-2-(2,2-difluoroethyl)-3-methyl-2,3,4,9-tetrahydro-1H-pyrido[3,4-b]indol-1-yl)-3,5-difluorophenyl)-2,6-diazaspiro[3.4]octan-6-yl)-2-oxoethyl)-2-(2,6-dioxopiperidin-3-yl)-6,7-dihydropyrrolo[3,4-f]isoindole-1,3(2H,5H)-dione]"
2,< 10 nM,"C[C@@H]1Cc2cc(O)ccc2[C@@H](c2c(F)cc(N3CC4(CCN(C(=O)CN5Cc6cc7c(cc6C5)C(=O)N(C5CCC(=O)NC5=O)C7)C4)C3)cc2F)N1CC(F)F (stereo partly drawn) [E 36, 3-(6-(2-(2-(4-((1S,3R)-2-(2,2-difluoroethyl)-6-hydroxy-3-methyl-1,2,3,4-tetrahydroisoquinolin-1-yl)-3,5-difluorophenyl)-2,6-diazaspiro[3.4]octan-6-yl)-2-oxoethyl)-1-oxo-3,5,6,7-tetrahydropyrrolo[3,4-f]isoindol-2(1H)-yl)piperidine-2,6-dione]"
3,> 100 nM,O=C1CCC(N2C(=O)c3cc4c(cc3C2=O)CN(C2CCC(C(=O)NC3CN(c5ccc([C@@H]6c7ccc(O)cc7CC[C@@H]6c6ccccc6)cc5)C3)CC2)C4)C(=O)N1 (stereo partly shown) [E 336]
4,> 100 nM,"O=C1CCC(N2C(=O)c3cc4c(cc3C2=O)CN(C(=O)CN2CC3(CCN(c5ccc([C@@H]6c7ccc(O)cc7CC[C@@H]6c6ccccc6)cc5)CC3)C2)CCC4)C(=O)N1 (mixture of isomers) [E 168, rac-2-(2,6-dioxopiperidin-3-yl)-6-(2-(7-(4-((1R,2S)-6-hydroxy-2-phenyl-1,2,3,4-tetrahydronaphthalen-1-yl)phenyl)-2,7-diazaspiro[3.5]nonan-2-yl)acetyl)-6,7,8,9-tetrahydroazepino[3,4-f]isoindole-1,3(2H,5H)-dione]"
5,> 100 nM,"O=C1CCC(N2C(=O)c3cc4c(cc3C2=O)CN(C(=O)CN2CCC3(CCN(c5ccc([C@@H]6c7ccc(O)cc7CC[C@@H]6c6ccccc6)cc5)CC3)C2)C4)C(=O)N1 (mixture of isomers) [E 140, Rac-2-(2,6-dioxopiperidin-3-yl)-6-(2-(8-(4-((1R,2S)-6-hydroxy-2-phenyl-1,2,3,4-tetrahydronaphthalen-1-yl)phenyl)-2,8-diazaspiro[4.5]decan-2-yl)acetyl)-6,7-dihydropyrrolo[3,4-f]isoindole-1,3(2H,5H)-dione]"
6,10 to 100 nM,"C[C@@H]1Cc2c([nH]c3ccccc23)[C@@H](c2c(F)cc(-c3ccc(C(=O)N4CCC(N5Cc6cc7c(cc6C5)C(=O)N(C5CCC(=O)NC5=O)C7=O)CC4)nn3)cc2F)N1CC(F)F (stereo partly drawn) [E 345, 6-(1-(6-(4-((1R,3R)-2-(2,2-difluoroethyl)-3-methyl-2,3,4,9-tetrahydro-1H-pyrido[3,4-b]indol-1-yl)-3,5-difluorophenyl)pyridazine-3-carbonyl)piperidin-4-yl)-2-(2,6-dioxopiperidin-3-yl)-6,7-dihydropyrrolo[3,4-f]isoindole-1,3(2H,5H)-dione]"
7,> 100 nM,"C[C@H]1CC2(CCN(c3ccc([C@@H]4c5ccc(O)cc5CC[C@@H]4c4ccccc4)cc3)CC2)CN1CC(=O)N1Cc2cc3c(cc2C1)C(=O)N(C1CCC(=O)NC1=O)C3=O (mixture of isomers) [E 151, Rac-2-(2,6-dioxopiperidin-3-yl)-6-(2-((S)-8-(4-((1R,2S)-6-hydroxy-2-phenyl-1,2,3,4-tetrahydronaphthalen-1-yl)phenyl)-3-methyl-2,8-diazaspiro[4.5]decan-2-yl)acetyl)-6,7-dihydropyrrolo[3,4-f]isoindole-1,3(2H,5H)-dione]"
8,> 100 nM,"C[C@@H]1Cc2c([nH]c3ccccc23)[C@@H](c2c(F)cc(N3CCC(C(=O)N4CCC(CN5Cc6cc7c(cc6C5)C(=O)N(C5CCC(=O)NC5=O)C7=O)CC4)CC3)cc2F)N1CC(F)F (stereo partly drawn) [E 233, 6-((1-(1-(4-((1R,3R)-2-(2,2-difluoroethyl)-3-methyl-2,3,4,9-tetrahydro-1H-pyrido[3,4-b]indol-1-yl)-3,5-difluorophenyl)piperidine-4-carbonyl)piperidin-4-yl)methyl)-2-(2,6-dioxopiperidin-3-yl)-6,7-dihydropyrrolo[3,4-f]isoindole-1,3(2H,5H)-dione]"
9,> 100 nM,"C[C@@H]1Cc2cc(O)ccc2[C@@H](c2c(F)cc(N3CCN(C(=O)[C@H]4CC[C@@H](N5Cc6cc7c(cc6C5)C(=O)N(C5CCC(=O)NC5=O)C7=O)CC4)CC3)cc2F)N1CC(F)F (mixture of isomers) [E 352, Rac-6-((1R,4s)-4-(4-(4-((1S,3R)-2-(2,2-difluoroethyl)-6-hydroxy-3-methyl-1,2,3,4-tetrahydroisoquinolin-1-yl)-3,5-difluorophenyl)piperazine-1-carbonyl)cyclohexyl)-2-(2,6-dioxopiperidin-3-yl)-6,7-dihydropyrrolo[3,4-f]isoindole-1,3(2H,5H)-dione]"
10,> 100 nM,"C[C@@H]1Cc2cc(O)ccc2C(c2ccc(N3CCC(C(=O)N4CCC(N5Cc6cc7c(cc6C5)C(=O)N(C5CCC(=O)NC5=O)C7=O)CC4)CC3)cn2)N1CC(F)F (stereo partly drawn) [E 322, 6-(1-(1-(6-((3R)-2-(2,2-difluoroethyl)-6-hydroxy-3-methyl-1,2,3,4-tetrahydroisoquinolin-1-yl)pyridin-3-yl)piperidine-4-carbonyl)piperidin-4-yl)-2-(2,6-dioxopiperidin-3-yl)-6,7-dihydropyrrolo[3,4-f]isoindole-1,3(2H,5H)-dione]"
11,> 100 nM,"O=C1CCC(N2C(=O)c3cc4c(cc3C2=O)CCN(CC(=O)N2CC3(CCN(c5ccc([C@@H]6c7ccc(O)cc7CC[C@@H]6c6ccc(F)cc6)cc5)CC3)C2)CC4)C(=O)N1 (stereo partly drawn) [E 184, 2-(2,6-dioxopiperidin-3-yl)-7-(2-(7-(4-((1R,2S)-2-(4-fluorophenyl)-6-hydroxy-1,2,3,4-tetrahydronaphthalen-1-yl)phenyl)-2,7-diazaspiro[3.5]nonan-2-yl)-2-oxoethyl)-6,7,8,9-tetrahydroazepino[4,5-f]isoindole-1,3(2H,5H)-dione]"

# Same assay, conditions: compounds 16 hours, Table A does not say whether T47D or MCF7, read-out: Potency (DC50)
row,DC50,SMILES
1,> 100 nM,"O=C1CCC(N2C(=O)c3cc4c(cc3C2=O)CN(CC(=O)N2CCC3(CC2)CCN(C(=O)c2ccc([C@@H]5c6ccc(O)cc6CC[C@@H]5c5ccccc5)cc2)CC3)C4)C(=O)N1 (stereo partly drawn) [E 495, 2-(2,6-dioxopiperidin-3-yl)-6-(2-(9-(4-((1R,2S)-6-hydroxy-2-phenyl-1,2,3,4-tetrahydronaphthalen-1-yl)benzoyl)-3,9-diazaspiro[5.5]undecan-3-yl)-2-oxoethyl)-6,7-dihydropyrrolo[3,4-f]isoindole-1,3(2H,5H)-dione]"
2,10 to 100 nM,"C[C@@H]1Cc2c([nH]c3ccccc23)[C@@H](c2c(F)cc(C3CCC4(CC3)CCN(C(=O)CN3Cc5cc6c(cc5C3)C(=O)N(C3CCC(=O)NC3=O)C6=O)CC4)cc2F)N1CC(F)F (stereo partly drawn) [E 480, 6-(2-(9-(4-((1R,3R)-2-(2,2-difluoroethyl)-3-methyl-2,3,4,9-tetrahydro-1H-pyrido[3,4-b]indol-1-yl)-3,5-difluorophenyl)-3-azaspiro[5.5]undecan-3-yl)-2-oxoethyl)-2-(2,6-dioxopiperidin-3-yl)-6,7-dihydropyrrolo[3,4-f]isoindole-1,3(2H,5H)-dione]"
